From patent publication US7919508B2, “3-piperidinylisochroman-5-ols as dopamine agonists” (Aventis Pharmaceuticals Inc., priority 2004, dated 2011)
Where a name gives a salt, the structure may show the parent alone.

Tests used:
[1] = biological target: T1, human dopamine D1 receptor (Homo sapiens, UniProt P21728); assay: [3H]-SCH-23390 binding to cloned human dopamine D1 receptors (CHO cell membranes); details: competitive binding, [3H]-SCH-23390, cloned human D1 in CHO membranes; read-out: D1 affinity Ki
T1 construct: A 1.4 Kb Hind III to Xho I fragment was subcloned into the vector pMMLV; expressed in transfected cells; host or cells: CHO cells, clone CHO-D1M#9 (plasmid pHD1MMLV), membranes

[2] = biological target: T2, D1 receptor (Homo sapiens, UniProt P21728); assay: D1 Activation Adenylyl Cyclase Assay (cAMP FlashPlate, D1 transfected CHO cell line); format: cell-based; details: agonist activity at the D1 receptor, adenylate cyclase assay, D1 transfected CHO cell line; read-out: D1 EC50
T2 construct: expressed in transfected cells; host or cells: D1 transfected CHO cell line
Procedure: D1 Activation Adenylyl Cyclase Assay
Purpose: To measure D1-agonist activity compounds using an Adenylyl Cyclase Activation Flash Plate Assay from NEN.
Buffers: Activation and Detection buffers are provided from NEN: Catalog # SMP004A.
Maintenance of D1 transfected CHO cell line: • 1. Cells are grown in a 150 cc flask in an incubator at 37° C. with 5% CO2 for 2-3 days (4 maximum) until confluent. • 2. Aspirate off old media (Cells adhere to the plastic flask), wash 2× with sterile PBS. • 3. Add ˜5 mL of Trypsin EDTA (enough to cover bottom of the flask) for 5 min. at RT. • 4. Stop digestion with 15 mL of Media (Ham's F12 plus 10% FBS, 1% P/S, 400 μg/mL G418). • Bang flask on counter to release them from the flask. • 5. Add 2 mL of this to 30 mL of Media in a fresh flask. Return to incubator. Preparation of Cells for Assay: • 1. Loosen the cells with 5 mL Vercine (EDTA)/flask for 10 minutes in incubator. • 2. Add 20 mL of Serum-free media/flask. Transfer to 50-mL Falcon tube. • 3. Spin down cells at 1000 RPM for 5 minutes at 4° C. • 4. Aspirate off old media and resuspend in 5 mL of Serum-free media/plate to be done. • 5. Dilute 10 μL 1/10 in 90 μL Trypan Blue solution and count with a hemocytometer. • Count (live cells only) all four areas and average them. • Count X 10^5 equals cells/mL (including accounting for dilution in Trypan). • 6. Dilute to 50,000 cells/50 μL (1,000,000 cells/mL) in Serum-free media. • 7. Put 50 μL/well in Rows 3-12 of a cAMP FlashPlate. • 8. Put in incubator at 37° C. for 2-4 hours, to allow cells to recover and attach. Adenylyl Cyclase Activation Assay: • 1. Prepare the cAMP standards: • Add 130 μL/well of stimulation buffer to each row of a separate 96-well “standard” plate, 2 columns/plate. • Dilute stock cAMP standard 1/5 with stimulation buffer (final concentration is 1000 pmol/mL). Add 130 μL of this to row A. • Make 1/2 serial dilutions by adding 130 μL from each well to the next (A-G), mixing between each. • Final concentrations are: • A: 500, B: 250, C: 125, D: 62.5, E: 31.25, F: 15.6, G: 7.8, H: 0 pmol/mL. • Place 100 μL from each row from 2 columns of the standard plate into columns 1 and 2 of each “reaction” plate. • 2. Prepare the negative and positive control in the “reaction” plate: • Column 3, rows A-D, add 100 μL stimulation buffer (negative control). • Column 3, rows E-H, add 90 μL of stimulation buffer plus 10 μL of 200 μM APO (positive control, […]). (10 μL 10 mM APO, plus 490 μL stim. buffer=1/50 dilution.) • 3. Prepare the agonist compound dilutions in the “compound” plate: • Add 80 μL of stimulation buffer to row A (One column for each compound), and 90 μL of stimulation buffer to rows B—H. • Add 20 μL of 10 mM of each compound to appropriate row A. • Make 1/10 serial dilutions by adding 10 μL from each well to the next (A-H), mixing between each. • 4. […]. Prepare Detection/Stop buffer by adding 90 μL/plate of cAMP-^125I to 10 mL/plate plus 6 mL (for dead volume) of detection buffer. Steps 6-8 performed with the Multi-Mek. • 6. Add 50 μL to each well of the FlashPlate with CHO cells set up earlier. • 7. Incubate at RT for 8 minutes. • 8. Stop reaction by adding 100 μL of detection/stop buffer to each well. • 9. Cover with plastic film and incubate at RT for 16-24 hours (don't wait more than 24 hours). • 10. Count in a Packard Top-Count. Calculations: • 1. Raw signals generated by cAMP standard wells, without cells, are averaged at each cAMP concentration and converted to % B/Bo by dividing the raw signal at each cAMP concentration by the raw signal with no cAMP added. • 2. These values are used to generate a standard curve by plotting cAMP concentration versus % B/Bo. • 3. Raw data for each compound at each concentration is also converted to % B/B. by the same method. • 4. These values are then converted to pmol cAMP/mL using the standard curve. • 5. These cAMP values are then averaged across the three replicates for each compound concentration. • 6. […]

T1 sequence (P21728 whole entry, the tested form may be a part): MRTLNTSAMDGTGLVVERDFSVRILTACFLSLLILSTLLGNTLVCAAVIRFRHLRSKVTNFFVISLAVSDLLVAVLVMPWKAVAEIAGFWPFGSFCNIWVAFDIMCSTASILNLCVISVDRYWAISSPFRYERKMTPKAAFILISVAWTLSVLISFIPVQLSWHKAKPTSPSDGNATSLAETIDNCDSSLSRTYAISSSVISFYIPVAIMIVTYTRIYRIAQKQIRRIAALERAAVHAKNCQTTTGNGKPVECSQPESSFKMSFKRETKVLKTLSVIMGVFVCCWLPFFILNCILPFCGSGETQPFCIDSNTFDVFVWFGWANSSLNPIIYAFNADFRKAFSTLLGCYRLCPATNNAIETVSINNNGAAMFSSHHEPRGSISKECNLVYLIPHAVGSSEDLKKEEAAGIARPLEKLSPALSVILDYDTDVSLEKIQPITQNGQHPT
T2 sequence (P21728 whole entry): as the sequence (P21728 whole entry, the tested form may be a part) above

Compound | Ki [1] [nM] | EC50 [2] [nM]
Cc1ccc(C(=O)NC(C)CCN2CCC([C@@H]3Cc4c(ccc(C)c4O)[C@H](CN)O3)CC2)cc1 (stereo partly drawn) [Example 15, N-{3-[4-((1R,3S)-1-Aminomethyl-5-hydroxy-6-methyl-isochroman-3-yl)-piperidin-1-yl]-1-methyl-propyl}-4-methyl-benzamide dihydrochloride] | 126 | 11
Cc1ccc2c(c1O)C[C@@H](C1CCN(CCC(C)NC(=O)c3ccc(Br)cc3)CC1)O[C@H]2CN (stereo partly drawn) [Example 23, N-{3-[4-((1R,3S)-1-Aminomethyl-5-hydroxy-6-methyl-isochroman-3-yl)-piperidin-1-yl]-1-methyl-propyl}-4-bromo-benzamide dihydrochloride] | 91.8 | 59
Cc1ccc2c(c1O)C[C@@H](C1CCN(Cc3ccncc3)CC1)O[C@H]2CN [Example 54, (1R,3S)-1-Aminomethyl-6-methyl-3-(1-pyridin-4-ylmethyl-piperidin-4-yl)-isochroman-5-ol dihydrochloride] | 153 | 45
Cc1ccc(CN2CCC([C@@H]3Cc4c(ccc(C)c4O)[C@H](CN)O3)CC2)cc1 [Example 66, (1R,3S)-1-Aminomethyl-6-methyl-3-[1-(4-methyl-benzyl)-piperidin-4-yl]-isochroman-5-ol dihydrochloride] | 75.7 | 6
Cc1ccc2c(c1O)C[C@@H](C1CCN(Cc3cccc(F)c3)CC1)O[C@H]2CN [Example 69, (1R,3S)-1-Aminomethyl-3-[1-(3-fluoro-benzyl)-piperidin-4-yl]-6-methyl-isochroman-5-ol dihydrochloride] | 32.5 | 10
Cc1ccc2c(c1O)C[C@@H](C1CCN(Cc3ccccc3)CC1)O[C@H]2CN [Example 93, (1R,3S)-1-Aminomethyl-3-[1-(benzyl)-piperidin-4-yl]-6-methyl-isochroman-5-ol dihydrobromide] | – | 45
CNC[C@@H]1O[C@H](C2CCN(C)CC2)Cc2c1ccc(C)c2O [Example 102, (1R,3S)-6-Methyl-1-methylaminomethyl-3-(1-methyl-piperidin-4-yl)-isochroman-5-ol dihydrobromide] | 147 | 1500
Cc1ccc2c(c1O)C[C@@H](C1CCN(CCCC(c3ccc(F)cc3)c3ccc(F)cc3)CC1)O[C@H]2CN [Example 108, (1R,3S)-1-Aminomethyl-3-{1-[4,4-bis-(4-fluoro-phenyl)-butyl]-piperidin-4-yl}-6-methyl-isochroman-5-ol dihydrobromide] | 110 | 36
Cc1ccc2c(c1O)C[C@@H](C1CCN(Cc3ccc(C(F)(F)F)cc3)CC1)O[C@H]2CN(C)C [Example 168, (1R,3S)-1-Dimethylaminomethyl-6-methyl-i-3-[1-(4-trifluoromethylbenzyl)piperidin-4-yl]-isochroman-5-ol] | 45 | 31000

Further compounds by falling EC50 [2], results first:

Ki [1] [nM] | EC50 [2] [nM] | Compound
123 | 7000 | CCN(C)C[C@@H]1O[C@H](C2CCN(Cc3ccc(C(F)(F)F)cc3)CC2)Cc2c1ccc(C)c2O [Example 183, (1R,3S)-1-[(Ethyl-methyl-amino)-methyl]-6-methyl-3-[1-(4-trifluoromethyl-benzyl)-piperidin-4-yl]-isochroman-5-ol]
255 | 1300 | CCNC[C@@H]1O[C@H](C2CCN(Cc3ccc(C(F)(F)F)cc3)CC2)Cc2c1ccc(C)c2O [Example 182, (1R,3S)-1-Ethylaminomethyl-6-methyl-3-[1-(4-trifluoromethyl-benzyl)-piperidin-4-yl]-isochroman-5-ol]
94.2 | 420 | Cc1ccc2c(c1O)C[C@@H](C1CCN(Cc3ccoc3)CC1)O[C@H]2CN [Example 71, (1R,3S)-1-Aminomethyl-3-(1-furan-3-ylmethyl-piperidin-4-yl)-6-methyl-isochroman-5-ol hydrochloride]
– | 280 | Cc1ccc2c(c1O)C[C@@H](C1CCN(CCC(C)c3ccccc3)CC1)O[C@H]2CN (stereo partly drawn) [Example 27, (1R,3S)-1-Aminomethyl-6-methyl-3-[1-(3-phenyl-butyl)-piperidin-4-yl]-isochroman-5-ol dihydrobromide]
21 | 220 | CNC[C@@H]1O[C@H](C2CCN(Cc3ccc(C(F)(F)F)cc3)CC2)Cc2c1ccc(C)c2O [Example 181, (1R,3S)-6-Methyl-1-methylaminomethyl-3-[1-(4-trifluoromethyl-benzyl)-piperidin-4-yl]-isochroman-5-ol hydrochloride]
19.4 | 77 | Cc1ccc2c(c1O)C[C@@H](C1CCN(Cc3ccc(C(F)(F)F)cc3F)CC1)O[C@H]2CN [Example 70, (1R,3S)-1-Aminomethyl-3-[1-(2-fluoro-4-trifluoromethyl-benzyl)-piperidin-4-yl]-6-methyl-isochroman-5-ol dihydrochloride]
19.8 | 47 | COc1ccc(CN2CCC([C@@H]3Cc4c(ccc(C)c4O)[C@H](CN)O3)CC2)cc1 [Example 61, (1R,3S)-1-Aminomethyl-3-[1-(4-methoxy-benzyl)-piperidin-4-yl]-6-methyl-isochroman-5-ol dihydrochloride]
46.1 | 14 | Cc1ccc2c(c1O)C[C@@H](C1CCN(Cc3ccc(O)cc3)CC1)O[C@H]2CN [Example 62, (1R,3S)-1-Aminomethyl-3-[1-(4-hydroxy-benzyl)-piperidin-4-yl]-6-methyl-isochroman-5-ol dihydrochloride]
52 | 10 | Cc1ccc2c(c1O)C[C@@H](C1CCN(Cc3ccc(Cl)cc3)CC1)O[C@H]2CN [Example 58, (1R,3S)-1-Aminomethyl-3-[1-(4-chloro-benzyl)-piperidin-4-yl]-6-methyl-isochroman-5-ol dihydrochloride]
6.8 | 9 | Cc1ccc2c(c1O)C[C@@H](C1CCN(Cc3ccc(F)c(F)c3)CC1)O[C@H]2CN [Example 63, (1R,3S)-1-Aminomethyl-3-[1-(3,4-difluoro-benzyl)-piperidin-4-yl]-6-methyl-isochroman-5-ol dihydrochloride]
62.6 | 9 | Cc1ccc2c(c1O)C[C@@H](C1CCN(Cc3ccsc3)CC1)O[C@H]2CN [Example 67, (1R,3S)-1-Aminomethyl-6-methyl-3-(1-thiophen-3-ylmethyl-piperidin-4-yl)-isochroman-5-ol dihydrochloride]
– | 6 | Cc1ccc2c(c1O)C[C@@H](C1CCN(CCCc3ccccc3)CC1)O[C@H]2CN [Example 110, (1R,3S)-1-Aminomethyl-6-methyl-3-[1-(3-phenyl-propyl)-piperidin-4-yl]-isochroman-5-ol dihydrochloride]
